The values below come from article PMC8151276, “An Integrated Approach toward NanoBRET Tracers for Analysis of GPCR Ligand Engagement” (Molecules, 2021).

Type in all cases: binding
Test [1] deals with T1, OXTR (Homo sapiens, UniProt P30559).
T1 construct: purchased Promega (in-house HiBiT-GPCR construct library, NanoBRET)
T1 sequence (P30559 1-389): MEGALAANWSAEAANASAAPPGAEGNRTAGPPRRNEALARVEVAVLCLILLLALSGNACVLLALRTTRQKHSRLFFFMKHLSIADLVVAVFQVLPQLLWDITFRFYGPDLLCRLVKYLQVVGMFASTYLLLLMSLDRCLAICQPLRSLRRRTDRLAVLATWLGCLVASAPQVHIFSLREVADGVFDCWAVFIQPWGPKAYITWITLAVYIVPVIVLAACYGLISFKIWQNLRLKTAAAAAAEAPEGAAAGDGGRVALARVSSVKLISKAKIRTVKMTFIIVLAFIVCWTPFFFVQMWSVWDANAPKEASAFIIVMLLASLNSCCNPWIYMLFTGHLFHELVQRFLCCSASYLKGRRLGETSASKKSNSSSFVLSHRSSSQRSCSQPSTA
Nature of the test: NanoBRET screen HiBiT-OXTR in HEK293. As to the method: (§1) Each tracer candidate was screened across the entire library of HiBiT-GPCR constructs using NanoBRET as the detection modality. As depicted in Figure 4A, the specificity of interactions was evaluated through decrease in BRET due to competitive displacement of a bound tracer by excess parental compound. Each tracer was analyzed for binding to each HiBiT-GPCR fusion in the absence and in the presence of competing parental compound. Briefly, HEK293 cells were transfected with HiBiT-GPCR constructs diluted into promoterless DNA to reduce expression and maximize translocation to the cell surface. Each tracer candidate was then screened at concentrations of 1 μM and 0.1 μM across cells expressing these fusions. Cells were treated for 1.5 h with tracer either alone or in the presence of 20 μM competing parental compound (i.e., control). BRET was measured upon addition of purified LgBiT and subsequent complementation with HiBiT genetically fused to a GPCR. The specificity of interactions was assessed through a decrease in BRET signal due to competitive displacement of the bound tracer. To further gauge the robustness of these interactions, the fold response over the control (i.e., BRETtracer/BRETcontrol) was calculated. We chose a 1.5-fold response, which translates to ≥7-fold signal over noise as the minimal threshold required to score an interaction as positive. […]. Below we highlight the screening results obtained for our exemplary fluorescent tracers based on Clozapine, Amitriptyline and AZD1283.
(§2) HiBiT-GPCR DNA constructs were diluted in 10 mM Tris pH 8 to a final concentration of 0.01 μg/μL, arrayed in 96-well plates and stored at −20 °C. For transfection, HEK293 cells were suspended in Opti-MEM (without phenol red) supplemented with 2% fetal bovine serum (Seradigm) and 100 units/mL penicillin–streptomycin (Gibco) at a final concentration of 220,000 cells/mL and dispensed into white 96-well plates at 90 μL/well. Subsequent transfections and screens were carried using an Agilent Bravo Automated Liquid Handling Platform. First, the 96-well HiBiT DNA arrays were diluted 25-fold in Opti-MEM (without serum or phenol red) to a final concentration of 0.0004 μg/μL and 20 μL of the diluted DNAs were transferred into new 96-well plates. Next, promoterless carrier DNA (1 μg/μL) was diluted 25-fold (0.04 μg/μL) and then dispensed into the diluted arrays at 20 μL/well. Following brief mixing, Viafect transfection reagent (Promega) diluted 16-fold into Opti-MEM was dispensed into the plates at 40 μL/well. After mixing by pipetting, plates were incubated for 10 min on the pipetting station deck. The DNA-transfection reagent complexes were then added to plates containing cells. To facilitate the screen, 10 μL of DNA-transfection reagent complexes were added in duplicates to the top 4 and bottom 4 rows, resulting in two identical 48-well arrays per plate. Plates with transfected cells were incubated for 18–20 h at 37 °C/5% CO2. A screen of each tracer across the entire library using two different concentrations requires duplicate plates of transfected cells. Depending on the number of tracers being screened, transfections can be scaled up using the same ratios. The next day, for each tracer, four 20× screening solutions in tracer dilution buffer (Promega) were prepared: two duplicates at final concentration of 20 μM and two duplicates at a final concentration of 2 μM. A competing unmodified compound was added to one of each duplicate at a final concentration of 400 μM. The four resulting solutions were diluted 4-fold in Opti-MEM without serum or phenol red to generate 5× solutions (5 µM and 0.5 µM tracer +/− 100 μM competing compound). To screen the library, a BioTek MultiFlo FX liquid dispenser was used to dispense 22.5 µL of tracer solution to the top 4 rows and 22.5 µL tracer + competing compound solution to the 4 bottom rows. Plates were briefly mixed on an orbital shaker and incubated for 1.5 h at room temperature. […]

For test [2], the target named is T2, NPY2R (Homo sapiens, UniProt P49146).
T2 construct: purchased Promega (in-house HiBiT-GPCR construct library, NanoBRET)
T2 sequence (P49146 1-381): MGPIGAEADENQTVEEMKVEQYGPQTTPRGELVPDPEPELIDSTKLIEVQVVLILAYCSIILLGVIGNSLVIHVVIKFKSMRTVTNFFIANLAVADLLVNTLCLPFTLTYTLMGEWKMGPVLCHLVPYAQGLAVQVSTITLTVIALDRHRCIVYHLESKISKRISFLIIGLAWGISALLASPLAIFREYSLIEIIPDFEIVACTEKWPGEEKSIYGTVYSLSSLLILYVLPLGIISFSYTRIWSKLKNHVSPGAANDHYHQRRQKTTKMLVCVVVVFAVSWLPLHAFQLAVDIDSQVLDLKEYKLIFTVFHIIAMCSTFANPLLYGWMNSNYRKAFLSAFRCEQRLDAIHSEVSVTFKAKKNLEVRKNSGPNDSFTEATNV
The test is described as follows: NanoBRET screen HiBiT-NPY2R in HEK293. As to the method: as §1, §2
(In BRET a luciferase serves as donor, and the signal depends on an acceptor being close.)

For test [3], the target named is T3, CCR8 (Homo sapiens, UniProt P51685).
T3 construct: purchased Promega (in-house HiBiT-GPCR construct library, NanoBRET)
The test is described as follows: NanoBRET screen HiBiT-CCR8 in HEK293. As to the method: as §1, §2

The target in test [4] is T4, C5AR2 (Homo sapiens, UniProt Q9P296).
T4 construct: purchased Promega (in-house HiBiT-GPCR construct library, NanoBRET)
Nature of the test: NanoBRET screen HiBiT-C5AR2 in HEK293. How it is done:
as §1, §2

The mark [5] stands for this setting: tracer at 0.1μM, listed as amitriptyline-b-2-NB590.
Setting [6] is: tracer at 1μM, listed as amitriptyline-b-2-NB590.

T3 sequence (P51685 whole entry): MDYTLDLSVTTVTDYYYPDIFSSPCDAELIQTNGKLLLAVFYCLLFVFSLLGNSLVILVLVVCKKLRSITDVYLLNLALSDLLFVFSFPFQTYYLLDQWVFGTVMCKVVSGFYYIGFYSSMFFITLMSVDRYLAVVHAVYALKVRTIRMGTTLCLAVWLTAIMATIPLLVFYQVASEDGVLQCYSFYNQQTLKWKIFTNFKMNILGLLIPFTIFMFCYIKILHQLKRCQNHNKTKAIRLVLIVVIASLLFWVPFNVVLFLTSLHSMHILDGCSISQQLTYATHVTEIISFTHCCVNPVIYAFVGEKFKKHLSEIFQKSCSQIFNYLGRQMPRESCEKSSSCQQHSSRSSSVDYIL
T4 sequence (Q9P296 whole entry): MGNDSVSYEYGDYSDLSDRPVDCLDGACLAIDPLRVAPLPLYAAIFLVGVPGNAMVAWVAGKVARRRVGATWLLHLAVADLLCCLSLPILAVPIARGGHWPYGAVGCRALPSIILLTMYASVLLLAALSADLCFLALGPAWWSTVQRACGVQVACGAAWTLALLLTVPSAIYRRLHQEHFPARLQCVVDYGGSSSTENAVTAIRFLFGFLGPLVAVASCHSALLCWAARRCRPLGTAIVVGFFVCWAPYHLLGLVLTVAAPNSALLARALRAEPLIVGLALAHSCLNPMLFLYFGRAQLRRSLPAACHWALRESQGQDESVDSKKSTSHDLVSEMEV

Take `COc1ccc2c(n1)c(CCNC(C)=O)cn2CCNC(=O)CCc1ccc2n1[B-](F)(F)[N+]1=C(c3ccc[nH]3)C=CC1=C2` [Azamelatonin-1-NB590]: the “NanoBRET Fold Response” value in test [1] (0.1μM tracer) is listed as 1.11; in test [1] (1μM tracer) it was 0.94; in test [2] (0.1μM tracer), 1.19; in test [2] (1μM tracer), 0.85; in test [3] (0.1μM tracer), 1.13; in test [3] (1μM tracer) it was 1.09. Besides, the “NanoBRET Fold Response” value in test [4] (0.1μM tracer) was determined as 0.90; in test [4] (1μM tracer), 0.93.

Consider `CC(C)N(CC[C@H](c1ccccc1)c1cc(CCNC(=O)c2ccc(CNC(=O)CCc3ccc4n3[B-](F)(F)[N+]3=C(c5ccc[nH]5)C=CC3=C4)cc2)ccc1O)C(C)C` [Tolterodine-BZ-NB590], for which the “NanoBRET Fold Response” value in test [1] (OXTR, tracer 0.1μM) came to 1.02; in test [1] (OXTR, tracer 1μM) it was 1.01; in test [2] (NPY2R, tracer 0.1μM) it was 0.90; in test [2] (NPY2R, tracer 1μM), 1.04; in test [3] (CCR8, tracer 0.1μM) it was 0.92; in test [3] (CCR8, tracer 1μM), 1.00. The “NanoBRET Fold Response” value in test [4] (C5AR2, tracer 0.1μM) stood at 1.05; in test [4] (C5AR2, tracer 1μM), 1.08.

Turning to `O=C(CCc1ccc2n1[B-](F)(F)[N+]1=C(c3ccc[nH]3)C=CC1=C2)NCCOCCOCCNC(=O)OCCOCCN1CCN(C2=Nc3ccccc3Sc3ccccc32)CC1` [Quetiapine-a-2-NB590], the “NanoBRET Fold Response” value was determined as 1.10 in test [1] (OXTR, tracer 0.1μM); 0.82 in test [1] (OXTR, tracer 1μM); 0.99 in test [2] (NPY2R, tracer 0.1μM); 0.85 in test [2] (NPY2R, tracer 1μM); 0.93 in test [3] (CCR8, tracer 0.1μM); 1.16 in test [3] (CCR8, tracer 1μM). The “NanoBRET Fold Response” value in test [4] (C5AR2, tracer 0.1μM) is 1.04; in test [4] (C5AR2, tracer 1μM), 0.77.

Take `Cc1cc2c(s1)Nc1ccccc1N=C2N1CCN(CCCNC(=O)CCOCCOCCOCCOCCNC(=O)CCc2ccc3n2[B-](F)(F)[N+]2=C(c4ccc[nH]4)C=CC2=C3)CC1` [Olanzapine-a-2-NB590]: the “NanoBRET Fold Response” value in test [1] (OXTR, tracer 0.1μM) is 1.00; in test [1] (OXTR, tracer 1μM), 0.96; in test [2] (NPY2R, tracer 0.1μM) it was 1.00; in test [2] (NPY2R, tracer 1μM) it was 0.99; in test [3] (CCR8, tracer 0.1μM), 0.96; in test [3] (CCR8, tracer 1μM), 0.95. Besides, the “NanoBRET Fold Response” value was 0.95 in test [4] (C5AR2, tracer 0.1μM) and 0.97 in test [4] (C5AR2, tracer 1μM).

With `O=C(CCc1ccc2n1[B-](F)(F)[N+]1=C(c3ccc[nH]3)C=CC1=C2)NCc1ccc(C(=O)NCCOCCOCCNCC(O)COc2cccc3ccccc23)cc1` (stereo not drawn) [Propranolol-3-NB590], the “NanoBRET Fold Response” value in test [1] (OXTR, 0.1μM) stood at 1.04; in test [1] (OXTR, 1μM) it was 0.98; in test [2] (NPY2R, 0.1μM) it was 1.02; in test [2] (NPY2R, 1μM) it was 1.00; in test [3] (CCR8, 0.1μM), 1.00; in test [3] (CCR8, 1μM), 0.93. Also, the “NanoBRET Fold Response” value came to 1.00 in test [4] (C5AR2, 0.1μM) and 1.01 in test [4] (C5AR2, 1μM).

As to `CN(C)CCC=C1c2ccccc2CCc2ccc(C(=O)NCCNC(=O)CCOCCOCCOCCOCCNC(=O)CCc3ccc4n3[B-](F)(F)[N+]3=C(c5ccc[nH]5)C=CC3=C4)cc21` [Amitriptyline-b-2-NB590], the “NanoBRET Fold Response” value was 1.08 in test [1] (setting [5]); 1.01 in test [1] (setting [6]); 1.09 in test [2] (setting [5]); 0.88 in test [2] (setting [6]); 1.03 in test [3] (setting [5]); 1.03 in test [3] (setting [6]).

Turning to `CN(CCC=C1c2ccccc2CCc2ccccc21)C(=O)CCOCCOCCOCCOCCNC(=O)CCc1ccc2n1[B-](F)(F)[N+]1=C(c3ccc[nH]3)C=CC1=C2` [Amitriptyline-e-2-NB590], the “NanoBRET Fold Response” value in test [3] (tracer at 1μM) turned out to be 0.79; in test [4] (tracer at 1μM), 1.01.
